These results are taken from US20230278972A1, “SUBSTITUTED HALOALKYL SULFONANILIDE HERBICIDES” (FMC Corporation, priority 2020, published 2023).

What all share (format): in vivo
Assay [1] relates to Foxtail, Giant (giant foxtail, Setaria faberi). Briefly: Test A1 preemergence, Foxtail, Giant. Put shortly: (§1)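 Herbicidal response was scored on plants treated either preemergence, by directed spray onto soil of a loam–sand blend after sowing, or postemergence on potted plants at the one- to two-leaf stage, 2–10 cm high. Test chemicals were carried in a non-phytotoxic solvent mix with surfactant.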

In a further assay the test system is kochia (Bassia scoparia). Briefly: Test A1 preemergence, kochia. The gist of the method:
as §1

The subject of assay [2] is Oat, Wild (wild oat, Avena fatua). The assay is described as follows: Test A1 preemergence, Oat, Wild. Put shortly:
as §1

Assay [3] has as its system wheat (Triticum aestivum). The assay is described as follows: Test A1 postemergence, wheat. Conditions: Postemergence. Put shortly:
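Both timings started from seed in a loam-sand blend. Preemergence pots got a directed soil application immediately; postemergence pots were sprayed when seedlings had one or two leaves and stood 2–10 cm. Each compound was prepared in a non-phytotoxic solvent plus surfactant.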

The subject of assay [4] is barnyardgrass (Echinochloa crus-galli). The assay is described as follows: Test B1 flooded paddy test, barnyardgrass. The following applies: 250 g ai/ha, Flood, applied to paddy water, 2-leaf stage, visually evaluated after 10 to 14 days. An excerpt: (§2) A dash (-) response means no test result.
Assay [5] concerns ducksalad (Heteranthera limosa). The assay is described as follows: Test B1 flooded paddy test, ducksalad. Conditions: 250 g ai/ha, Flood, applied to paddy water, 2-leaf stage, visually evaluated after 10 to 14 days.
From the text: as §2

Another assay has as its system rice (Oryza sativa). Briefly: Test B1 flooded paddy test, rice. The following applies: 250 g ai/ha, Flood, applied to paddy water, 2-leaf stage, visually evaluated after 10 to 14 days.
From the text: as §2

Setting [6] is: 31 g ai/ha, 0 to 100 scale (0 no effect, 100 complete control).
[7] abbreviates: 125 g ai/ha, 0 to 100 scale, 0 no effect, 100 complete control.
Setting [8] is: 31 g ai/ha, 0 to 100 scale (0 no effect, 100 complete control), 10 days.

In the case of `Cc1cc(F)c(C2=NOC3CCCC23)cc1NS(=O)(=O)C(F)(F)F` (centres unmarked) [Compound 310], the results for the “Plant response rating, Foxtail, Giant” value in assay [1] (setting [6]) and in assay [1] (setting [7]) were 0 and 20, respectively. Moreover, the “Plant response rating, Kochia” value was 0 in the assay with kochia (Bassia scoparia) (setting [6]) and 40 in the assay on kochia (Bassia scoparia) (setting [7]). For the same molecule, the “Plant response rating, Oat, Wild” value in assay [2] (setting [6]) and in assay [2] (setting [7]) was 0 each time. Besides, the “Plant response rating, Wheat” value in assay [3] (setting [8]) was 0; in assay [3] (125 g ai/ha, 0 to 100 scale) it was 20. The “Plant response rating, Barnyardgrass (0 to 100 scale, 0 is no effect, 100 is complete control)” value in assay [4] worked out at 0. Besides, the “Plant response rating, Ducksalad (0 to 100 scale, 0 is no effect, 100 is complete control)” value in assay [5] was found to be 0. The “Plant response rating, Rice (0 to 100 scale, 0 is no effect, 100 is complete control)” value in the assay on rice (Oryza sativa) is recorded as 0.

For the molecule `CCc1cc(C)c(C2=NOC3(CCCC3)C2)cc1NS(=O)(=O)C(F)(F)F` [Compound 311], the “Plant response rating, Foxtail, Giant” value in assay [1] (setting [6]) is given as 0; in assay [1] (setting [7]), 10. In addition, the “Plant response rating, Kochia” value in the assay with kochia (Bassia scoparia) (setting [6]) and with kochia (Bassia scoparia) (setting [7]) was 0 throughout. Further, the “Plant response rating, Oat, Wild” value in assay [2] (setting [6]) and in assay [2] (setting [7]) was 0 each time. The “Plant response rating, Wheat” value is 0 in assay [3] (setting [8]) and 0 in assay [3] (125 g ai/ha, 0 to 100 scale). Moreover, in assay [4], the “Plant response rating, Barnyardgrass (0 to 100 scale, 0 is no effect, 100 is complete control)” value amounted to 0. Further, in assay [5], the “Plant response rating, Ducksalad (0 to 100 scale, 0 is no effect, 100 is complete control)” value turned out to be 0. In addition, the “Plant response rating, Rice (0 to 100 scale, 0 is no effect, 100 is complete control)” value in the assay on rice (Oryza sativa) is on record as 0.

Consider `COc1cc(C)c(NS(=O)(=O)C(F)(F)F)cc1C1=NOC2CCCC12` (centres unmarked) [Compound 312], for which the “Plant response rating, Foxtail, Giant” value in assay [1] (setting [6]) is given as 20; in assay [1] (setting [7]), 30. For the same molecule, the “Plant response rating, Kochia” value in the assay with kochia (Bassia scoparia) (setting [6]) and in the assay with kochia (Bassia scoparia) (setting [7]) was 0 throughout. The “Plant response rating, Oat, Wild” value in assay [2] (setting [6]) and in assay [2] (setting [7]) was 0 in each case. For the same molecule, the “Plant response rating, Wheat” value in assay [3] (setting [8]) came out at 0; in assay [3] (125 g ai/ha, 0 to 100 scale), 0. Moreover, the “Plant response rating, Barnyardgrass (0 to 100 scale, 0 is no effect, 100 is complete control)” value in assay [4] amounted to 0. Moreover, in assay [5], the “Plant response rating, Ducksalad (0 to 100 scale, 0 is no effect, 100 is complete control)” value was found to be 0. Moreover, the “Plant response rating, Rice (0 to 100 scale, 0 is no effect, 100 is complete control)” value in the assay on rice (Oryza sativa) is on record as 0.

Turning to `Cc1cc(C2CC2)c(NS(=O)(=O)C(F)(F)F)cc1C1=NOC2(CCCC2)C1` [Compound 313], the “Plant response rating, Foxtail, Giant” value in assay [1] (setting [6]) was 0; in assay [1] (setting [7]) it was 40. In addition, the “Plant response rating, Kochia” value with kochia (Bassia scoparia) (setting [6]) and with kochia (Bassia scoparia) (setting [7]) was 0 throughout. The “Plant response rating, Oat, Wild” value in assay [2] (setting [6]) and in assay [2] (setting [7]) was 0 in each case. Also, the “Plant response rating, Wheat” value in assay [3] (setting [8]) is 0; in assay [3] (125 g ai/ha, 0 to 100 scale), 0. Besides, the “Plant response rating, Barnyardgrass (0 to 100 scale, 0 is no effect, 100 is complete control)” value in assay [4] is reported as 0. In assay [5], the “Plant response rating, Ducksalad (0 to 100 scale, 0 is no effect, 100 is complete control)” value is given as 0. Further, in the assay on rice (Oryza sativa), the “Plant response rating, Rice (0 to 100 scale, 0 is no effect, 100 is complete control)” value is reported as 0.

Regarding `Cc1cc(C)c(N(COC(=O)OC(C)C)S(=O)(=O)C(F)(F)F)cc1C1=NOC2CCCC12` (centres unmarked) [Compound 314], the “Plant response rating, Foxtail, Giant” value is given as 30 in assay [1] (setting [6]) and 90 in assay [1] (setting [7]). Moreover, the figures for the “Plant response rating, Kochia” value in the assay on kochia (Bassia scoparia) (setting [6]) and with kochia (Bassia scoparia) (setting [7]) were 0 and 70, respectively. For the same molecule, the “Plant response rating, Oat, Wild” value in assay [2] (setting [6]) and in assay [2] (setting [7]) was 0 each time. For the same molecule, the “Plant response rating, Wheat” value amounted to 50 in assay [3] (setting [8]) and 70 in assay [3] (125 g ai/ha, 0 to 100 scale). Also, in assay [4], the “Plant response rating, Barnyardgrass (0 to 100 scale, 0 is no effect, 100 is complete control)” value was 98. The “Plant response rating, Ducksalad (0 to 100 scale, 0 is no effect, 100 is complete control)” value in assay [5] turned out to be 90. Moreover, the “Plant response rating, Rice (0 to 100 scale, 0 is no effect, 100 is complete control)” value with rice (Oryza sativa) worked out at 25.

As for `Cc1cc(C)c(N(COC(=O)OC(C)(C)C)S(=O)(=O)C(F)(F)F)cc1C1=NOC2CCCC12` (centres unmarked) [Compound 316], the “Plant response rating, Foxtail, Giant” value was determined as 0 in assay [1] (setting [6]) and 30 in assay [1] (setting [7]). Besides, the figures for the “Plant response rating, Kochia” value in the assay with kochia (Bassia scoparia) (setting [6]) and in the assay on kochia (Bassia scoparia) (setting [7]) were 0 and 50, respectively. The “Plant response rating, Oat, Wild” value in assay [2] (setting [6]) and in assay [2] (setting [7]) was 0 each time. Moreover, the “Plant response rating, Wheat” value in assay [3] (setting [8]) came to 10; in assay [3] (125 g ai/ha, 0 to 100 scale), 40. The “Plant response rating, Barnyardgrass (0 to 100 scale, 0 is no effect, 100 is complete control)” value in assay [4] is on record as 95. In addition, the “Plant response rating, Ducksalad (0 to 100 scale, 0 is no effect, 100 is complete control)” value in assay [5] stood at 90. The “Plant response rating, Rice (0 to 100 scale, 0 is no effect, 100 is complete control)” value in the assay on rice (Oryza sativa) came out at 0.

Take `Cc1cc(C)c(N(COC(=O)N(C)C)S(=O)(=O)C(F)(F)F)cc1C1=NOC2CCCC12` (centres unmarked) [Compound 317]: the “Plant response rating, Foxtail, Giant” value in assay [1] (setting [6]) and in assay [1] (setting [7]) was 0 in each case. Moreover, the “Plant response rating, Kochia” value in the assay on kochia (Bassia scoparia) (setting [6]) and with kochia (Bassia scoparia) (setting [7]) was 0 each time. The “Plant response rating, Oat, Wild” value in assay [2] (setting [6]) and in assay [2] (setting [7]) was 0 throughout. The “Plant response rating, Wheat” value in assay [3] (setting [8]) was 0; in assay [3] (125 g ai/ha, 0 to 100 scale), 0. Besides, the “Plant response rating, Barnyardgrass (0 to 100 scale, 0 is no effect, 100 is complete control)” value in assay [4] came to 0. For the same molecule, in assay [5], the “Plant response rating, Ducksalad (0 to 100 scale, 0 is no effect, 100 is complete control)” value came out at 30. In addition, the “Plant response rating, Rice (0 to 100 scale, 0 is no effect, 100 is complete control)” value with rice (Oryza sativa) amounted to 0.
